Measured values as given in publication PMC6934184, “Selective DNA-PKcs inhibition extends the therapeutic index of localized radiotherapy and chemotherapy” (The Journal of Clinical Investigation, 2019).

Target: T1, CHUK (IKK alpha) (Homo sapiens, UniProt O15111)
T1 construct: purchased Thermo Fisher Scientific (Life Technologies) SelectScreen
Experiment: SelectScreen Adapta
Format: biochemical
Outline: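 NU5455 was profiled across the SelectScreen Broad panel of kinase activity and binding assays. Z'LYTE reactions such as CSF1R ran at apparent Km ATP, while the Adapta CAMK1 assay used ATP listed as 10. Values are given as percent.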

T1 sequence (O15111 whole entry): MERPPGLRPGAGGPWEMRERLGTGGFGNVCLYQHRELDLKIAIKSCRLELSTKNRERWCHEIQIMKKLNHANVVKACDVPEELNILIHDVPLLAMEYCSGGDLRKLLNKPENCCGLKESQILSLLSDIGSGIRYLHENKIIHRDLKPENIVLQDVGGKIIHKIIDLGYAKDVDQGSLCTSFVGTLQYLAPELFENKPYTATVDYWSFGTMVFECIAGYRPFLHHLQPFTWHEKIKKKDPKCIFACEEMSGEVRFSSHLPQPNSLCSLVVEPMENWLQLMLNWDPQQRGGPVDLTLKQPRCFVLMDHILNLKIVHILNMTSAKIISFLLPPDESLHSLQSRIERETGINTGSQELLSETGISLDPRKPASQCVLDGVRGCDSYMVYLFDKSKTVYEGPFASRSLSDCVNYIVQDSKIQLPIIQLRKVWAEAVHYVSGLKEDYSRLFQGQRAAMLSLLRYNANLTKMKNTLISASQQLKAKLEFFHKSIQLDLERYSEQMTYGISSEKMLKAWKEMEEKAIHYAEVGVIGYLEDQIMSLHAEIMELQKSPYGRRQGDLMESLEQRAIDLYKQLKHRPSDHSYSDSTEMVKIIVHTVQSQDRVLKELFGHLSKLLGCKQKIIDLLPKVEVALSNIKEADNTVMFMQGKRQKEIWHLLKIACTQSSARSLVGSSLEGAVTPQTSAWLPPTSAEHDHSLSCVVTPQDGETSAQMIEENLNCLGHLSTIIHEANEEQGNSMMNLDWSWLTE

Question: Which inhibition at 1 µM does the source give for `CN(C(=O)CN1CCOCC1)c1ccc2sc3c(-c4cccc5c(=O)cc(N6CC7CCC(C6)O7)oc45)cccc3c2c1` [NU5455] here?
Answer: -4.2%
